# Data from patent US11472772B2, “S1P3 antagonists” (Teva Pharmaceutical Industries, Ltd., priority 2013, dated 2022).
# Assays:
# Format in all cases: in vivo, rat
# [1] = tested on: quisqualic acid lesioned rats; assay: Object Recognition Test (ORT) on quisqualic acid lesioned rats; details: exploration time of familiar vs novel object
# Procedure: QUIS-treated animals can also undergo the Object Recognition Test (ORT, measuring episodic memory) or other behavioural tests to measure the improvement of cognitive functions upon treatment with a compound of the invention.
# (§1) Three-month old male Wistar rats (Harlan, Milan, Italy) weighing 230-250 g were used. The rats were housed in macrolon cages with ad lib food and water and maintained on a 12 h light/dark cycle at 23° C. room temperature (RT). All experiments were carried out according to the guidelines of the European Community's Council for Animal Experiments (86/609/EEC). Efforts were made to minimize the number of animals used and their suffering. […]
# Object recognition was evaluated according to Ennanceur and Delacour (1988) and Scali et al., (1997). […] The times spent exploring the familiar (F) and the new object (N) were recorded separately and the difference between the two exploration times was taken. […]
# [2] = tested on: quisqualic acid lesioned rats; assay: Quisqualic acid (QUIS) injection in Nucleus Basalis Magnocellularis of rats: immunohistochemistry for neurodegeneration and neuroinflammation (ChAT, GFAP, OX42)
# Description: (§2) The efficacy of the compounds of the invention on neurodegeneration and neuroinflammation can be evaluated with two different methodological approaches aimed to reproduce some pathological features of Alzheimer's disease: • 1) the excitotoxic insult (quisqualic acid—QUIS) in the Nucleus Basalis Magnocellularis (NBM), characterized by severe neurodegeneration of cholinergic neurons along with significant neuroinflammation. • 2) the β-amyloid peptide 25-35 (Aβ25-35) injection in NBM of rats, inducing a significant glia reaction around Aβ25-35 deposits with modest toxicity on cholinergic neurons. • Readouts are based on immunochemical analysis and are: count of cholinergic neurons (ChAT-positive), astrocytes (GFAP-positive) and microglia (OX-42 or Iba-1 positive). The analysis is performed by two different approaches, the visual scoring (blind) and the digital platform APERIO®.
# Three-month old male Wistar rats (Harlan, Milan, Italy) weighing 230-250 g were used. The rats were housed in macrolon cages with ad lib food and water and maintained on a 12 h light/dark cycle at 23° C. room temperature (RT). All experiments were carried out according to the guidelines of the European Community's Council for Animal Experiments (86/609/EEC). Efforts were made to minimize the number of animals used and their suffering.
# The quisqualic acid (Sigma Chemical Co., Milan, Italy; dissolved in phosphate buffer at the concentration of 0.12 M volume 0.5 μl) or 10 ug of ABeta(25-35) peptide (Bachem) dissolved PBS at the concentration of 10 μg/μl and aggregate at 37° for 2 h before injection volume 1 μl) was injected by means of an Hamilton microsyringe into the right NBM under chloral hydrate anaesthesia at the following stereotaxic coordinates: AP=−0.2, L=−2.8 from bregma and H=7 from the dura (Paxinos and Watson, 1982, Casamenti et al., 1998). Controlateral NBM were injected with PBS solution. The study was performed for 7 days after surgery. […]
# [3] = tested on: Abeta(25-35) lesioned rats; assay: Abeta(25-35) peptide injection in NBM of rats: GFAP staining; details: 30 mg/kg, Kruskall-Wallis
# Description: as §2, §1
compound,measurement,setting,value
"CCCC(C(=O)Nc1cnc(Br)cn1)c1cncc(Br)c1 (stereo not drawn) [Example 33, 2-(5-Bromo-pyridin-3-yl)-pentanoic acid (5-bromo-pyrazin-2-yl)-amide]",Cognitive functions in ORT (episodic memory),[1],improved cognitive functions
same,Cognitive functions in ORT (episodic memory),[1]; listed as example 33,significantly ameliorates cognitive functions
same,"Neuroprotective effect, rat NBM ChAT-positive neuron counts (APERIO)","[2]; 30 and 60 mg/Kg/day p.o., QUIS lesioned rats",strong neuroprotective effects
same,"Anti-neuroinflammatory effect on astrocytes, GFAP reactivity","[2]; 30 and 60 mg/Kg/day, QUIS lesioned rats",strong activity on GFAP reactivity
same,Anti-neuroinflammatory and neuroprotective activity in the in vivo assays (FIGS. 1-3),[2]; doses ranging 10 to 60 mg/kg,anti-neuroinflammatory and neuroprotective activity
same,"GFAP-positive cells, quantitative analysis by visual scoring",[3],p<0.05 vs vehicle group
